Laboratory results reported in patent US20050239656A1, “Pyridine compounds or salts thereof and herbicides containing the same” (priority 2002, published 2005).

Columns and labels:
barnyardgrass = assay: Test Example 3: paddy pot test, application under submerged conditions; format: in vivo, Echinochloa crus-galli L.; settings: submerged application at 0.5 leaf stage, visually observed 14 days after application, 0 = non-treated, 100 = complete kill
Source text: (§1) Paddy field soil was put into a 1/1,000,000 ha pot, and seed of barnyardgrass and japanese bulrush were sown and slightly covered with soil. Then, the pot was left to stand still in a greenhouse in a state where the depth of flooding water was from 0.5 to 1 cm, and one day or two days later, tubers of japanese ribbon wapato were planted. Thereafter, the depth of flooding water was maintained at a level of from 3 to 4 cm, and when barnyardgrass and japanese bulrush reached a 0.5 leaf stage and japanese ribbon wapato reached a primary leaf stage, an aqueous diluted solution of a wettable powder or emulsifiable concentrate having the compound of the present invention formulated in accordance with a usual formulation method, was uniformly applied under submerged conditions by a pipette so that the dose of the active ingredient would be at a predetermined level. On the 14 days after the application of the herbicide, the growth of barnyard grass, japanese burlrush and japanese ribbon wapato was visually observed and on the 21st day after the application of the herbicide, the growth of rice was visually observed, and the herbicidal effects were evaluated by the growth-controlling degrees (%) ranging from 0 (equivalent to the non-treated plot) to 100 (complete kill), whereby the results shown in Table 5 were obtained.

japanese bulrush = assay: as above; format: in vivo, Scirpus juncoides; settings: submerged application at 0.5 leaf stage, visually observed 14 days after application, 0 = non-treated, 100 = complete kill
Source text: as §1

japanese ribbon wapato = assay: as above; format: in vivo, Sagittaria pygniaea; settings: submerged application at primary leaf stage, visually observed 14 days after application, 0 = non-treated, 100 = complete kill
Source text: as §1

rice (var. Nihonbare) = assay: Test Example 3: paddy pot test, transplanted rice; format: in vivo, Oryza sativa L.; settings: applied 4th day after transplantation, visually observed 21st day after application, 0 = non-treated, 100 = complete kill
Source text: as §1, with “On the other hand, paddy field soil was put into a 1/1,000,000 ha pot and puddled and leveled, and the depth of flooding water was from 3 to 4 cm. Next day, rice (var. Nihonbare) of 2 leaf stage was transplanted in a depth of 3 cm. On the 4th day after the transplantation, the compound of the present invention was applied in the same manner as described above. On the 14 days” for “On the 14 days”

| Compound | Growth controlling degree (%) Barnyardgrass (barnyardgrass; active ingredient 500 g/ha) [%] | Growth controlling degree (%) Japanese bulrush (japanese bulrush; active ingredient 500 g/ha) [%] | Growth controlling degree (%) Japanese ribbon wapato (japanese ribbon wapato; active ingredient 500 g/ha) [%] | Growth controlling degree (%) Rice (rice (var. Nihonbare); active ingredient 500 g/ha) [%] | Growth controlling degree (%) Barnyardgrass (barnyardgrass; active ingredient 250 g/ha) [%] | Growth controlling degree (%) Japanese bulrush (japanese bulrush; active ingredient 250 g/ha) [%] | Growth controlling degree (%) Japanese ribbon wapato (japanese ribbon wapato; active ingredient 250 g/ha) [%] | Growth controlling degree (%) Rice (rice (var. Nihonbare); active ingredient 250 g/ha) [%] |
| --- | --- | --- | --- | --- | --- | --- | --- | --- |
| CC(C)C(NC(=O)c1ccccc1)c1cnccc1C(F)(F)F (racemic) [I-115] | 70 | 40 | 20 | 20 |  |  |  |  |
| CC(C)C(c1cnccc1C(F)(F)F)N(C)S(=O)(=O)c1ccc(C(F)(F)F)cc1 (stereo not drawn) [I-146] |  |  |  |  | 98 | 80 | 0 | 20 |
| CC(C)C(c1cnccc1C(F)(F)F)N(C)C(=O)Cc1cccc2ccccc12 (stereo not drawn) [I-56] | 95 | 70 | 90 | 20 |  |  |  |  |
| CC(C)C(c1cnccc1C(F)(F)F)N(C)C(=O)COc1ccc([N+](=O)[O-])cc1 (stereo not drawn) [I-237] |  |  |  |  | 95 | 95 | 40 | 0 |
| CC(C)C(c1cnccc1C(F)(F)F)N(C)S(=O)(=O)C=Cc1ccc(Cl)cc1 (stereo not drawn) [I-142] |  |  |  |  | 100 | 60 |  | 10 |
| CC(C)C(NC(=O)Cc1ccc(C(F)(F)F)cc1)c1cnccc1C(F)(F)F (stereo not drawn) [I-7] | 95 | 70 | 0 | 20 |  |  |  |  |
| CC(C)C(c1cnccc1C(F)(F)F)N(C)C(=O)COc1cccc(Cl)c1 (stereo not drawn) [I-247] |  |  |  |  | 100 | 95 | 0 | 0 |
| CC(C)C(c1cnccc1C(F)(F)F)N(C)C(=O)C=Cc1cccs1 (stereo not drawn) [I-173] |  |  |  |  | 90 | 95 | 30 | 0 |
| CCN(C(=O)Cc1cccc(F)c1F)C(c1cnccc1C(F)(F)F)C(C)C (stereo not drawn) [I-77] |  |  |  |  | 98 | 95 | 40 | 0 |
| CCN(C(=O)Cc1ccccc1F)C(c1cnccc1C(F)(F)F)C(C)C (stereo not drawn) [I-78] |  |  |  |  | 100 | 70 | 40 | 20 |
| Cc1ccccc1OCC(=O)N(C)C(c1cnccc1C(F)(F)F)C(C)C (stereo not drawn) [I-240] |  |  |  |  | 100 | 100 | 50 | 0 |
| CC(C)C(c1cnccc1C(F)(F)F)N(C)C(=O)COc1c(F)c(F)c(F)c(F)c1F (stereo not drawn) [I-252] |  |  |  |  | 95 | 98 | 0 | 0 |
| CCCC(=O)NC(c1cnccc1C(F)(F)F)c1cccc2ccccc12 (stereo not drawn) [I-49] | 90 | 85 |  | 10 |  |  |  |  |
| CCN(C(=O)N(C)C(c1cnccc1C(F)(F)F)C(C)C)c1ccccc1 (stereo not drawn) [I-233] | 95 | 90 | 40 | 10 |  |  |  |  |
| CC(C)C(c1cnccc1C(F)(F)F)N(C)C(=O)C=Cc1cccc(Br)c1 (stereo not drawn) [I-179] | 90 | 90 | 30 | 10 |  |  |  |  |
| CC(C)C(c1cnccc1C(F)(F)F)N(C)S(=O)(=O)c1ccc(C(C)(C)C)cc1 (stereo not drawn) [I-145] |  |  |  |  | 100 | 0 |  | 20 |

| Compound | Growth controlling degree (%) Barnyardgrass (barnyardgrass; active ingredient 500 g/ha) [%] | Growth controlling degree (%) Japanese bulrush (japanese bulrush; active ingredient 500 g/ha) [%] | Growth controlling degree (%) Japanese ribbon wapato (japanese ribbon wapato; active ingredient 500 g/ha) [%] | Growth controlling degree (%) Rice (rice (var. Nihonbare); active ingredient 500 g/ha) [%] | Growth controlling degree (%) Barnyardgrass (barnyardgrass; active ingredient 250 g/ha) [%] | Growth controlling degree (%) Japanese bulrush (japanese bulrush; active ingredient 250 g/ha) [%] | Growth controlling degree (%) Japanese ribbon wapato (japanese ribbon wapato; active ingredient 250 g/ha) [%] | Growth controlling degree (%) Rice (rice (var. Nihonbare); active ingredient 250 g/ha) [%] |
| --- | --- | --- | --- | --- | --- | --- | --- | --- |
| CC(Sc1ccc(Cl)cc1)C(=O)N(C)C(c1cnccc1C(F)(F)F)C(C)C (mixture of isomers) [I-141] |  |  |  |  | 100 | 98 |  | 20 |
| CC(C)C(c1cccnc1)N(C)C(=O)Cc1ccccc1 (stereo not drawn) [I-93] | 60 | 95 | 30 | 0 |  |  |  |  |
| C=CCCC(=O)N(C)C(c1cnccc1C(F)(F)F)C(C)C (stereo not drawn) [I-211] |  |  |  |  | 100 | 98 |  | 50 |
| CC(C)C(c1cnccc1C(F)(F)F)N(C)C(=O)C=Cc1ccc2ccccc2c1 (stereo not drawn) [I-188] | 100 | 0 | 0 | 0 |  |  |  |  |
| CC(C)C(c1cnccc1C(F)(F)F)N(C)C(=O)C=C1CCCC1 (stereo not drawn) [I-176] |  |  |  |  | 98 | 98 | 0 | 0 |
| Cc1cccc(OCC(=O)N(C)C(c2cnccc2C(F)(F)F)C(C)C)c1 (stereo not drawn) [I-238] |  |  |  |  | 95 | 95 | 60 | 20 |
| Cc1ccc(F)c(CC(=O)N(C)C(c2cnccc2C(F)(F)F)C(C)C)c1 (stereo not drawn) [I-108] |  |  |  |  | 98 | 100 | 60 | 10 |
| CC(C)C(c1ccc(C(F)(F)F)nc1)N(C)C(=O)Cc1ccccc1 (racemic) [I-123] | 70 | 10 |  | 10 |  |  |  |  |
| CC(Oc1ccc(F)cc1F)C(=O)N(C)C(c1cnccc1C(F)(F)F)C(C)C (mixture of isomers) [I-138] |  |  |  |  | 98 | 100 |  | 10 |
| CCN(C(=O)Cc1ccccc1)C(c1cnccc1C(F)(F)F)C(C)C (stereo not drawn) [I-24] |  | 95 | 100 | 40 |  |  |  |  |
| CC(Sc1ccccc1)C(=O)N(C)C(c1cnccc1C(F)(F)F)C(C)C (mixture of isomers) [I-140] |  |  |  |  | 98 | 98 |  | 0 |
| CC(C)C(c1cnccc1C(F)(F)F)N(C)C(=O)OCc1ccccc1 (racemic) [I-111] |  |  |  |  | 90 | 10 |  | 0 |
| CC(C)C(c1cnccc1C(F)(F)F)N(C)C(=O)C(F)(F)c1ccccc1 (stereo not drawn) [I-143] |  |  |  |  | 98 | 98 |  | 10 |
| CC(Oc1ccc(Cl)cc1)C(=O)N(C)C(c1cnccc1C(F)(F)F)C(C)C (mixture of isomers) [I-139] |  |  |  |  | 98 | 98 |  | 10 |
| COc1ccc(S(=O)(=O)N(C)C(c2cnccc2C(F)(F)F)C(C)C)cc1 (stereo not drawn) [I-144] |  |  |  |  | 100 | 98 |  | 20 |
| CCCC(=O)N(C)C(c1cnccc1C(F)(F)F)c1cccc2ccccc12 (stereo not drawn) [I-50] | 95 | 95 |  | 10 |  |  |  |  |
